Reference: ChEMBL document CHEMBL1151329, “New cyclic peroxides from the Philippine sponge Plakinastrella sp” (J Nat Prod, 1998)
The source made the active and inactive calls. The calls are words filed in the database; no cut-off is given here.

Test system: Candida albicans
Test: Antifungal activity against Candida albicans
Type: functional, organism-based

## C[C@@]1(CCCCCCCCCCc2ccccc2)C[C@]2(C)OC(=O)C[C@@H]2OO1
  Activity: inactive

## CC/C=C\C/C=C/C=C/CCCCCC[C@@]1(C)C[C@](C)(CC(=O)O)OO1 (relative stereo)
  Activity: inactive

## CC/C=C\C/C=C/C=C/CCCCCC[C@@]1(C)C[C@](C)(CC(=O)OC)OO1 (relative stereo)
  Activity: inactive

## CCC(C)CCCCCC/C=C\CC/C=C\CCCC(=O)OC (centres undefined)
  Activity: inactive
